The values that follow come from ChEMBL document CHEMBL6109175, “Ubiquitin-Specific Protease 7 (USP7) as a Promising Therapeutic Target for Drug Discovery: From Mechanisms to Therapies” (J Med Chem, 2025).

What is called Kd is the constant that tells how readily two partners part at equilibrium. In general, IC50 refers to the midpoint of a concentration-inhibition curve. Low values mean inhibition by little substance, high ones a need for much substance.

For assay [1], the target named is T1, Ubiquitin carboxyl-terminal hydrolase 7 (Homo sapiens, UniProt Q93009). Put plainly: Binding affinity to USP7 catalytic domain human USP7 (208 to 560 residues) (unknown origin) extracted from Escherichia coli assessed as dissociation constant.
T1 sequence (Q93009 whole entry, the tested form may be a part): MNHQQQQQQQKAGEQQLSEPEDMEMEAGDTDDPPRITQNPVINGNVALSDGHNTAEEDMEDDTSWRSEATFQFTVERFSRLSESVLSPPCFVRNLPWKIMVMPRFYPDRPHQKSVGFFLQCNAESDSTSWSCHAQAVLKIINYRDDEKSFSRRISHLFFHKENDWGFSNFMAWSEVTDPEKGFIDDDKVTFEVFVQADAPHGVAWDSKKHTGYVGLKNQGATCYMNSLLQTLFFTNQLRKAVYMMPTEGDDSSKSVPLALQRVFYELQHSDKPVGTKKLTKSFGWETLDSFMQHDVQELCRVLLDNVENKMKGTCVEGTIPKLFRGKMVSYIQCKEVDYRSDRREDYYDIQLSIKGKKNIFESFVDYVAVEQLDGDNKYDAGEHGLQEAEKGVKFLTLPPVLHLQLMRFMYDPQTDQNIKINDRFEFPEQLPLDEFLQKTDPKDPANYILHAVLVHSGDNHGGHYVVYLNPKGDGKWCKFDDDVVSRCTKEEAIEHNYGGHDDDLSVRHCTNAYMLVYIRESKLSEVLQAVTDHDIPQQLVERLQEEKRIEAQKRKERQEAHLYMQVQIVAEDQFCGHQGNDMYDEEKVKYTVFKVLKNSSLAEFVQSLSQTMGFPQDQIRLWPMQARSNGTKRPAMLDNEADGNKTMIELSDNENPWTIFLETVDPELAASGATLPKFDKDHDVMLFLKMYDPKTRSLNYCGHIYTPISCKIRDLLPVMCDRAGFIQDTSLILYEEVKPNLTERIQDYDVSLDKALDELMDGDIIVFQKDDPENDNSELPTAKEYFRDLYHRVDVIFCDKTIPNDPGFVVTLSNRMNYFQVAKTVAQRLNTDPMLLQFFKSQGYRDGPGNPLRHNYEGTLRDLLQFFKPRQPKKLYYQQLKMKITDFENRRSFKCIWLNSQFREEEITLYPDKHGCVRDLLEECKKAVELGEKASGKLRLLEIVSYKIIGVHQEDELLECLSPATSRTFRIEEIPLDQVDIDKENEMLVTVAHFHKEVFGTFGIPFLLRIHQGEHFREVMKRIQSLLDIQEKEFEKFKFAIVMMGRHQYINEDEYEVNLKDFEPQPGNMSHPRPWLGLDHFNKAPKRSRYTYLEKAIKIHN
In assay [2] the target is T1, Ubiquitin carboxyl-terminal hydrolase 7. Nature of the assay: Inhibition of USP7 catalytic domain human USP7 (208 to 560 residues) (unknown origin) extracted from Escherichia coli.
For assay [3] the target is unchanged. Put plainly: Inhibition of N-terminal His-tagged USP7 catalytic domain (208 to 554 residues) (unknown origin) by TR-FRET assay. (TR-FRET usually uses a lanthanide donor and a delayed reading to cut background.)
For assay [4] the target is unchanged. Nature of the assay: Inhibition of full length USP7 (unknown origin).

On to `O=C(C[C@@H](C(F)F)n1ccc(F)n1)N1CCC(O)(Cn2cnc3c(cnn3-c3ccc(F)cc3)c2=O)CC1`, for which the Kd in assay [1] is 0.065 µM. The compound also registered an IC50 in assay [2] of 52 µM.
`CCc1c(-c2ccc(C(=O)NC)nc2)cnc(N)c1-c1ccc(O)cc1` had a half-maximal inhibitory concentration (IC50) in assay [3] of 0.61 µM.
For `O=C(CCc1ccccc1)N1CCC(O)(Cn2cnc3cc(Cl)ccc3c2=O)CC1`, in assay [4], the IC50 is 10.2 µM.
